Test results from patent US4359531A, “Production of isomaltulose” (Talres Development (N.A.) N.V., priority 1979, dated 1982).

System: isomaltulose-synthesising activity of the immobilized cells
Assay: Effect of chloramphenicol in the sucrose substrate on immobilized cells
Format: cell-based, Erwinia rhapontici
Details: 0.1 g/l in 55% (w/v) sucrose
Description: This hypothesis was confirmed when 0.1 g/l of chloramphenicol, which inhibits protein synthesis, was included in the 55% (w/v) sucrose used as substrate.

O=C(N[C@H](CO)[C@H](O)c1ccc([N+](=O)[O-])cc1)C(Cl)Cl [chloramphenicol]
isomaltulose-synthesising activity in presence of chloramphenicol: unaffected
cell division in presence of chloramphenicol (even when nutrients supplied): no cell division took place
